Measured values reported in patent publication US7109243B2 (IRM LLC, priority 2003, dated 2006).
pKi: −log10 of the molar value.

Experiments:
Cathepsin S = Cathepsin S (Homo sapiens, UniProt P25774); assay: Cathepsin S inhibition assay (fluorogenic peptide substrate); type: biochemical; settings: Table II, compounds of Formula I; read-out: Ki Cat. S
How it was run: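 Ki values come from nonlinear fitting of inhibited hydrolysis rates, taking free and total inhibitor concentrations as equal. Rates measured as rising fluorescence at 380/450 nm after reaction start with 50 μM final acetyl-HPVK-aminocarbamoylcoumarin.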

Cathepsin K = target: T1, Cathepsin K (Homo sapiens, UniProt P43235); assay: Cathepsin K inhibition assay (fluorogenic peptide substrate); selectivity ratio vs cathepsin S; type: biochemical; settings: ratio of cathepsin K inhibition constant to cathepsin S inhibition constant; Table II
T1 sequence (P43235 115-329): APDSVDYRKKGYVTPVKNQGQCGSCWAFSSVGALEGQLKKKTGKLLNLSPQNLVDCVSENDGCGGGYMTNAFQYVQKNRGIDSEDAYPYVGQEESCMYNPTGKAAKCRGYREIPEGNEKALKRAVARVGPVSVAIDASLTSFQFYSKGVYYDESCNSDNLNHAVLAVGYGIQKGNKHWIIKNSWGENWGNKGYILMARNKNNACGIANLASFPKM
How it was run: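 Fluorogenic kinetic assay, started with acetyl-Lys-His-Pro-Lys-aminocarbamoylcoumarin at 40 μM final, hydrolysis followed at ex 380/em 450 nm. Apparent inhibition constants from progress curves, converted to competitive inhibition constants. Selectivity expressed as isozyme inhibition constant divided by cathepsin S inhibition constant.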

Sequence of Cathepsin S (P25774 115-331, species assumed): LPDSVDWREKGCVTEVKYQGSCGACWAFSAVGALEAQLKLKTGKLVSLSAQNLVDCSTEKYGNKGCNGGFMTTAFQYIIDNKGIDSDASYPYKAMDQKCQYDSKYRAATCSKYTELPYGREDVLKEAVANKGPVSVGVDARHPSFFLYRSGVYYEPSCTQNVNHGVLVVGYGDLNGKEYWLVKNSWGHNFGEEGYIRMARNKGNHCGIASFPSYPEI

| SMILES | pKi (Cathepsin S) | Selectivity for Cat. S over Cat. K (Cathepsin K) |
| --- | --- | --- |
| Cc1ccc(-c2ccc(C(=O)N[C@@H](CC3CCCCC3)C(=O)NCCNc3ccc(OC(F)(F)F)cc3)o2)cc1 [Compound 70, 5-p-Tolyl-furan-2-carboxylic acid (S)-{2-cyclohexyl-1-[2-(4-trifluoromethoxy-phenylamino)-ethylcarbamoyl]-ethyl}-amide] | > 7.00 | +++ (+++, >1000) |
| N#Cc1cccc(C(=O)N[C@@H](CC2CCCCC2)C(=O)NCCNc2ccc(F)cc2)c1 [Compound 321, 3-Cyano-N-(S)-{2-cyclohexyl-1-[2-(4-fluoro-phenylamino)-ethylcarbamoyl]-ethyl}-benzamide] | > 6.00 | ++ (++, >100) |
| Cc1cc2ncc(C(=O)N[C@@H](CC3CCCCC3)C(=O)NCCNc3ccc(OC(F)(F)F)cc3)c(C)n2n1 [Compound 48, 2,7-Dimethyl-pyrazolo[1,5-a]pyrimidine-6-carboxylic acid (S)-{2-cyclohexyl-1-[2-(4-trifluoromethoxy-phenylamino)-ethylcarbamoyl]-ethyl}-amide] | > 6.00 | ++ (++, >100) |
| O=C(N[C@@H](CC1CCCCC1)C(=O)NCCNc1ccc(OC(F)(F)F)cc1)C1CC(=O)N(Cc2cccs2)C1 (stereo partly drawn) [Compound 38, 5-Oxo-1-thiophen-2-ylmethyl-pyrrolidine-3-carboxylic acid (S)-{2-cyclohexyl-1-[2-(4-trifluoromethoxy-phenylamino)-ethylcarbamoyl]-ethyl}-amide] | > 7.00 | ++ (++, >100) |
| COc1ccc(NCCNC(=O)[C@H](CC2CCOCC2)NC(=O)c2ccc(-c3cccc(C(F)(F)F)c3)o2)cc1 [Compound 5, N-((S)-1-(2-(4-methoxyphenylamino)ethylcarbamoyl)-2-(tetrahydro-2H-pyran-4-yl)ethyl)-5-(3-(trifluoromethyl)phenyl)furan-2-carboxamide] | > 6.00 | + (+, >10) |
| COc1ccc(NCCNC(=O)[C@H](Cc2ccc(Oc3ccc(Cl)cc3)cc2)NC(=O)c2cccc(C)c2)cc1 [Compound 300, (S)-N-{2-[4-(4-Chloro-phenoxy)-phenyl]-1-[2-(4-methoxy-phenylamino)-ethylcarbamoyl]-ethyl}-3-methyl-benzamide] | > 7.00 | ++ (++, >100) |
| COc1ccc(NCCNC(=O)[C@H](Cc2ccc(Oc3cccc(C)c3C)cc2)NC(=O)c2cccc(C)c2)cc1 [Compound 7, (S)-N-{2-[4-(2,3-Dimethyl-phenoxy)-phenyl]-1-[2-(4-methoxy-phenylamino)-ethylcarbamoyl]-ethyl}-3-methyl-benzamide] | > 6.00 | ++ (++, >100) |
| COc1ccc(NCCNC(=O)[C@H](CC2CCCCC2)NC(=O)c2ccc(-c3ccccc3OC)cc2)cc1 [Compound 174, (S)-2′-Methoxy-biphenyl-4-carboxylic acid {2-cyclohexyl-1-[2-(4-methoxy-phenylamino)-ethylcarbamoyl]-ethyl}-amide] | > 7.00 | + (+, >10) |
| COc1cccc(-c2cccc(C(=O)N[C@@H](CC3CCCCC3)C(=O)NCCNc3ccc(OC(F)(F)F)cc3)c2)c1 [Compound 74, 3′-Methoxy-biphenyl-3-carboxylic acid (S)-{2-cyclohexyl-1-[2-(4-trifluoromethoxy-phenylamino)-ethylcarbamoyl]-ethyl}-amide] | > 7.00 | +++ (+++, >1000) |
| COc1ccc(NCCNC(=O)[C@H](CC2CCCCC2)NC(=O)c2ccc(F)c(F)c2)cc1 [Compound 146, (S)-N-{2-Cyclohexyl-1-[2-(4-methoxy-phenylamino)-ethylcarbamoyl]-ethyl}-3,4-difluoro-benzamide] | > 7.00 | +++ (+++, >1000) |
| COc1ccc(NCCNC(=O)[C@H](Cc2ccccc2)NC(=O)Nc2ccc(Cl)cc2)cc1 [Compound 88, (S)-2-[3-(4-Chloro-phenyl)-ureido]-N-[2-(4-methoxy-phenylamino)-ethyl]-3-phenyl-propionamide] | > 6.00 | + (+, >10) |
| O=C(O)c1ccc(NCCNC(=O)[C@H](CC2CCCCC2)NC(=O)c2ccc(-c3cccc(C(F)(F)F)c3)o2)cc1 [Compound 11, 4-[2-(3-Cyclohexyl-2-(S)-{[5-(3-trifluoromethyl-phenyl)-furan-2-carbonyl]-amino}-propionylamino)-ethylamino]-benzoic acid] | > 7.00 | + (+, >10) |
| CC(C(=O)N[C@@H](CC1CCCCC1)C(=O)NCCNc1ccc(F)cc1)c1ccc(F)cc1 (stereo partly drawn) [Compound 310, N-{2-cyclohexyl-1-(S)-[2-(4-fluoro-phenylamino)-ethylcarbamoyl]-ethyl}-2-(4-fluoro-phenyl)-propionamide] | > 7.00 | ++ (++, >100) |
| Cc1oc(S(=O)(=O)N2CCCC2)cc1C(=O)N[C@@H](CC1CCCCC1)C(=O)NCCNc1ccc(OC(F)(F)F)cc1 [Compound 40, 2-Methyl-5-(pyrrolidine-1-sulfonyl)-furan-3-carboxylic acid (S)-{2-cyclohexyl-1-[2-(4-trifluoromethoxy-phenylamino)-ethylcarbamoyl]-ethyl}-amide] | > 6.00 | + (+, >10) |
| O=C(Cc1ccc(OC(F)(F)F)cc1)N[C@@H](CC1CCCCC1)C(=O)NCCNc1ccc(F)cc1 [Compound 87, 3-Cyclohexyl-N-(S)-[2-(4-fluoro-phenylamino)-ethyl]-2-[2-(4-trifluoromethoxy-phenyl)-acetylamino]-propionamide] | > 7.00 | ++ (++, >100) |
| C[C@@H](C(=O)N[C@@H](CC1CCCCC1)C(=O)NCCNc1ccc(OC(F)(F)F)cc1)c1ccccc1 [Compound 122, N-{2-cyclohexyl-1-(S)-[2-(4-trifluoromethoxy-phenylamino)-ethylcarbamoyl]-ethyl}-2-(R)-phenyl-propionamide] | > 7.00 | +++ (+++, >1000) |
| COc1ccc(NCCNC(=O)[C@H](Cc2ccc(C#N)cc2)NC(=O)c2cccc(C)c2)cc1 [Compound 240, (S)-N-{2-(4-Cyano-phenyl)-1-[2-(4-methoxy-phenylamino)-ethylcarbamoyl]-ethyl}-3-methyl-benzamide] | > 7.00 | +++ (+++, >1000) |
| O=C(N[C@@H](CC1CCCCC1)C(=O)NCCNc1ccc(OC(F)(F)F)cc1)c1ccc(-c2ccccc2Cl)cc1 [Compound 194, (S)-2′-Chloro-biphenyl-4-carboxylic acid {2-cyclohexyl-1-[2-(4-trifluoromethoxy-phenylamino)-ethylcarbamoyl]-ethyl}-amide] | > 6.00 | + (+, >10) |
| O=C(N[C@@H](CC1CCCCC1)C(=O)NCCNc1ccc(OC(F)(F)F)cc1)c1cccc(-c2ccccc2Cl)c1 [Compound 34, 2′-Chloro-biphenyl-3-carboxylic acid (S)-{2-cyclohexyl-1-[2-(4-trifluoromethoxy-phenylamino)-ethylcarbamoyl]-ethyl}-amide] | > 7.00 | +++ (+++, >1000) |
| COc1ccc(NCCNC(=O)[C@H](Cc2cccc(F)c2)NC(=O)c2cccc(C)c2)cc1 [Compound 236, (S)-N-{2-(3-Fluoro-phenyl)-1-[2-(4-methoxy-phenylamino)-ethylcarbamoyl]-ethyl}-3-methyl-benzamide] | > 7.00 | +++ (+++, >1000) |
| O=C(N[C@@H](CC1CCCCC1)C(=O)NCCNc1ccc(OC(F)(F)F)cc1)c1ccc(-c2ccc(OC(F)(F)F)cc2)o1 [Compound 215, (S)-5-(4-Trifluoromethoxy-phenyl)-furan-2-carboxylic acid {2-cyclohexyl-1-[2-(4-trifluoromethoxy-phenylamino)-ethylcarbamoyl]-ethyl}-amide] | > 7.00 | +++ (+++, >1000) |
| CS(=O)(=O)c1cccc(C(=O)N[C@@H](CC2CCCCC2)C(=O)NCCNc2ccc(F)cc2)c1 [Compound 296, N-(S)-{2-cyclohexyl-1-[2-(4-fluoro-phenylamino)-ethylcarbamoyl]-ethyl}-3-methanesulfonyl-benzamide] | > 7.00 | +++ (+++, >1000) |
| COc1ccc(NCCNC(=O)[C@H](CC2CCCCC2)NC(=O)c2ccc(C#N)cc2)cc1 [Compound 121, (S)-4-Cyano-N-{2-cyclohexyl-1-[2-(4-methoxy-phenylamino)-ethylcarbamoyl]-ethyl}-benzamide] | > 7.00 | + (+, >10) |
| O=C(N[C@@H](CC1CCCCC1)C(=O)NCCNc1ccc(OC(F)(F)F)cc1)c1ccc(-c2cccc(C(F)(F)F)c2)o1 [Compound 246, (S)-5-(3-Trifluoromethyl-phenyl)-furan-2-carboxylic acid {2-cyclohexyl-1-[2-(4-trifluoromethoxy-phenylamino)-ethylcarbamoyl]-ethyl}-amide] | > 7.00 | ++ (++, >100) |
| COc1ccc(NCCNC(=O)[C@H](Cc2ccc(Oc3cc(C)cc(C)c3)cc2)NC(=O)c2cccc(C)c2)cc1 [Compound 330, (S)-N-{2-[4-(3,5-Dimethyl-phenoxy)-phenyl]-1-[2-(4-methoxy-phenylamino)-ethylcarbamoyl]-ethyl}-3-methyl-benzamide] | > 6.00 | ++ (++, >100) |
